These results are taken from patent US20110028499A1, “PHARMACEUTICAL COMBINATION COMPRISING VITAMIN K” (SHIONOGI & CO., LTD., priority 2005, published 2011).

pEC50: −log10 of the molar value. “And” between values parts separate entries of the source, which are not always exact repeats. Equal entries are not always repeated. “Also recorded” adds a separate entry of the source.

The test system of series [1] is male Sprague-Dawley rats. The experiment in a line: Example 1: PT, APTT and Fbg in rat plasma after 7-day repeated gavage administration. Type of series: in vivo. The note with it: 300 mg/kg/day gavage, 7 days; for PT and APTT compared with Controls / APTT / Fbg / PT: rat.
For series [2], the system named is male Sprague-Dawley rats. Briefly: Example 2: PT, APTT and Fbg in rat plasma after 1, 2 and 3 administrations. It is filed as in vivo. The note with it: 300 mg/kg/day oral, blood on next day, mean.
In series [3] the test system is extrinsic and intrinsic blood coagulation factors. The experiment in a line: Example 2: activities of extrinsic and intrinsic blood coagulation factors in rat plasma (factor deficient plasma method). Type of series: in vivo. The note with it: 300 mg/kg/day oral, mean, % of intact rat plasma.
The test system of series [4] is male Sprague-Dawley rats. The experiment in a line: Example 3: PT, APTT and Fbg in rats given Compound (a) and/or vitamin K1 for 3 days. Type of series: in vivo. The following applies: rat; for APTT / Fbg / PT: mean. Here is the method: (§1) 4-week-old male Sprague-Dawley rats (Crj:CD(SD)IGS, SPF) were purchased from CHARLES RIVER LABORATORIES JAPAN, INC., Hino Breeding Center. […] Administeration was started at. […] Subcutaneous administeration was a 3-day administeration (3 or 200 μg/kg/day) into the back skin with injection syringe attached with a subcutaneous 1⁄4 needle at 1 mL/kg/day. Oral administeration was a 3-day repeated gavage administeration (200 μg/kg/day) with gastric tube for rats at. 4 mL/kg/day. Dosing volume was calculated based on body weight measured on that day. […] Activities of Vitamin K-dependent coagulation factors ([…]) were also) measured with the same blood plasma samples according to Example 2.

For series [5], the system named is Vitamin K-dependent coagulation factors (F-II, F-VII, F-X, F-IX). Briefly: Example 3: activities of vitamin K-dependent coagulation factors in rats given Compound (a) and/or vitamin K1. It is filed as in vivo. The following applies: rat, 3 days; for F-II activity / F-IX activity / F-VII activity / F-X activity: mean. Here is the method: as §1
Series [6] has as its system male Sprague-Dawley rats. Briefly: Example 4: PT, APTT and Fbg in rats given Compound (a) with or without vitamin K1 for 7 days. Type of series: in vivo. The following applies: rat; for APTT / Fbg / PT: Compound (a) only 200 mg/kg oral. Here is the method: 4-week-old male Sprague-Dawley rats (Crl:CD(SD), SPF) were purchased from CHARLES RIVER LABORATORIES JAPAN, INC., Hino Breeding Center. […] 0.005% (v/v) solution of vitamin K1 (TOYO Pharma Co., Ltd., 30 mg/3 mL) was prepared just before use with a vehicle of water for injection (Otsuka Pharmaceutical Factory, Inc.). […] Dosing volume was calculated based on body weight, measured on that day. […] The rats were dissected after collecting the blood and a visual inspection of skeletal muscle (soleus muscle) was carried out. After that, the muscle was fixed with 10% neutral buffered formalin, paraffin section was routinely processed, and a histological examination was carried out with an optical microscope after hematoxylin and eosin staining.

In series [7] the test system is skeletal muscle (soleus muscle). Briefly: Example 4: histological examination of skeletal muscle (soleus muscle). Type of series: in vivo. The arrangement: key: (±): slight; (+): mild. The note with it: rat, Compound (a) only 200 mg/kg oral, 7 days; individual animal.
For series [8] the following is noted: disclosed in WO01/00603; cited from earlier work.
Another series deals with human PPARδ (hPPARδ) (Homo sapiens, UniProt Q03181). Briefly: cell-based.
Sequence of human PPARδ (hPPARδ) (Q03181 139-441 limits assumed): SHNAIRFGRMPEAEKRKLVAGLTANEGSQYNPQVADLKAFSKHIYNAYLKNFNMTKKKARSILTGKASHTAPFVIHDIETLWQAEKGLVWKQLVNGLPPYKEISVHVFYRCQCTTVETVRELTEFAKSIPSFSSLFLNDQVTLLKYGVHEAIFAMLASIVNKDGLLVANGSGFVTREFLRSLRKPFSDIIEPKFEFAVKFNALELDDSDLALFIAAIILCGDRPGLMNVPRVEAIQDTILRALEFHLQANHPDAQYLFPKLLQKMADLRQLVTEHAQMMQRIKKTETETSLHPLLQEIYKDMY
Where [9] appears, read: Compound (a) only 300 mg/kg oral.
Setting [10] is: Compound (a) only 300 mg/kg/day.
[11] abbreviates: individual animal, 300 mg/kg/day.
Setting [12] is: vitamin K1 only 200 μg/kg subcutaneous.

Take `Cc1cc(SCc2sc(-c3ccc(C(F)(F)F)cc3)nc2C)ccc1OCC(=O)O` [Compound (a), GW501516]: in the series with male Sprague-Dawley rats [1] (4 animals in the group), the rats died is reported as 3. Further, the “PT and APTT compared with Controls” value in the series on male Sprague-Dawley rats [1] is listed as “prolonged”. Also, the APTT amounted to 46.4 s in the series on male Sprague-Dawley rats [1] (blood on next day, group mean); 46.4 s in the series with male Sprague-Dawley rats [1] (individual animal); 19.9 s with male Sprague-Dawley rats [2] (1 dose); 25.5 s in the series on male Sprague-Dawley rats [2] (2 doses); 30.7 s in the series on male Sprague-Dawley rats [2] (3 doses); 30.2 s in the series with male Sprague-Dawley rats [4] (setting [9]). The APTT in the series with male Sprague-Dawley rats [6] (individual animal) is 34.1 s and 67.1 s; with male Sprague-Dawley rats [6] (mean) it was 50.6 s. Besides, the Fbg is reported as 173.3 mg/dL with male Sprague-Dawley rats [1] (blood on next day, group mean); 173.3 mg/dL in the series with male Sprague-Dawley rats [1] (individual animal); 200.1 mg/dL in the series with male Sprague-Dawley rats [2] (1 dose); 198.8 mg/dL in the series on male Sprague-Dawley rats [2] (2 doses); 175.7 mg/dL with male Sprague-Dawley rats [2] (3 doses); 177.8 mg/dL in the series on male Sprague-Dawley rats [4] (setting [9]). Besides, the Fbg is 199.7 mg/dL and 227.2 mg/dL in the series on male Sprague-Dawley rats [6] (individual animal); 213.5 mg/dL with male Sprague-Dawley rats [6] (mean). In addition, the PT with male Sprague-Dawley rats [1] (blood on next day, group mean) was 26.9 s; in the series on male Sprague-Dawley rats [1] (individual animal), 26.9 s; in the series on male Sprague-Dawley rats [2] (1 dose), 14.6 s; with male Sprague-Dawley rats [2] (2 doses) it was 18.3 s; with male Sprague-Dawley rats [2] (3 doses), 21.7 s; in the series with male Sprague-Dawley rats [4] (setting [9]), 23.0 s. For the same compound, the PT in the series on male Sprague-Dawley rats [6] (individual animal) is 19.1 s and 35.5 s; in the series with male Sprague-Dawley rats [6] (mean) it was 27.3 s. The F-II activity in series [3] (1 dose) is 60.8%; in [3] (2 doses) it was 24.2%; in series [3] (3 doses), 15.1%; in series [5] (setting [9]), 13.8%. Also, the F-IX activity in series [3] (1 dose) is 62.5%; in series [3] (2 doses) it was 34.2%; in [3] (3 doses), 24.6%; in series [5] (setting [9]) it was 27.7%. Further, the values for the F-V activity in [3] (1 dose), in series [3] (2 doses) and in [3] (3 doses) were 93.3%, 90.6% and 93.0%, respectively. Moreover, the F-VII activity in series [3] (1 dose) is recorded as 57.7%; in series [3] (2 doses), 17.1%; in series [3] (3 doses) it was 8.8%; in series [5] (setting [9]) it was 6.3%. Moreover, the values for the F-VIII activity in series [3] (1 dose), in series [3] (2 doses) and in series [3] (3 doses) were 99.2%, 94.2% and 101.2%, respectively. Also, the F-X activity in series [3] (1 dose) came out at 68.3%; in [3] (2 doses), 44.7%; in series [3] (3 doses) it was 32.4%; in series [5] (setting [9]), 29.9%. Further, the F-XI activity in series [3] (1 dose) turned out to be 84.0%; in series [3] (2 doses), 76.0%; in series [3] (3 doses), 71.0%. Moreover, the F-XII activity turned out to be 79.4% in series [3] (1 dose), 80.7% in series [3] (2 doses) and 78.6% in [3] (3 doses). Besides, the “PT and APTT compared with the intact group” value in the series with male Sprague-Dawley rats [4] (setting [10]) is recorded as “more prolonged”. Also, in series [5] (setting [10]), the “activities of vitamin K-dependent coagulation factors compared with the intact group” value was “lowered”. For the same compound, the “prothrombin time and activated partial thromboplastin time” value in the series on male Sprague-Dawley rats [6] (Compound (a) only 200 mg/kg/day) is reported as “prolonged”. Further, in series [7], the “Histological examination Soleus muscle: Necrosis” value is listed as “Necrosis (+); also recorded: Necrosis (±)”. Moreover, the “elevation of HDL” value in [8] is “high elevation of HDL; also recorded: HDL-raising”.

The term pEC50 denotes the EC50 on a negative log10 scale, so that one unit is a factor of ten. As for `CCO/N=C/c1c(CSc2ccc(C(C)CC(=O)O)cc2OC)noc1-c1ccc(C(F)(F)F)cc1` (centres unmarked) [Compound (b)], the “PT and APTT compared with Controls” value in the series on male Sprague-Dawley rats [1] was “prolonged”. In the series with male Sprague-Dawley rats [1] (blood on next day, group mean), the APTT came out at 31.3 s, the Fbg came out at 204.5 mg/dL and the PT is 18.6 s. Moreover, in the series with male Sprague-Dawley rats [1] (setting [11]), the APTT is 29.1 s and 28.2 s and 30.7 s and 37.3 s; the Fbg is 217.9 mg/dL (2×) and 208.9 mg/dL and 173.3 mg/dL; the PT is 17.4 s and 18.6 s and 16.4 s and 22.0 s. At human PPARδ (hPPARδ), the negative logarithm of the EC50 (pEC50) was 8.89.

For `Cc1c(CSc2ccc([C@@H](C)CC(=O)O)cc2)noc1-c1ccc(C(F)(F)F)cc1` [Compound (c)], the “PT and APTT compared with Controls” value with male Sprague-Dawley rats [1] was “prolonged”. In the series on male Sprague-Dawley rats [1] (blood on next day, group mean), this compound yielded an APTT of 43.9 s, a Fbg of 204.8 mg/dL and a PT of 24.5 s. In the series on male Sprague-Dawley rats [1] (setting [11]), the APTT is 21.9 s and 41.8 s and 68.2 s and 43.8 s; the Fbg was 201.8 mg/dL and 179.6 mg/dL and 193.8 mg/dL and 243.9 mg/dL; the PT is 13.6 s and 22.3 s and 35.9 s and 26.0 s. The compound also gave a pEC50 on human PPARδ (hPPARδ) of 7.72.

In the series with male Sprague-Dawley rats [4] (setting [12]), `CC1=C(C/C=C(\C)CCC[C@H](C)CCC[C@H](C)CCCC(C)C)C(=O)c2ccccc2C1=O` [Vitamin K1, phylloquinone] returned an APTT of 15.9 s, a Fbg of 200.3 mg/dL and a PT of 15.3 s. For the same compound, the “each item (PT, APTT, Fbg, factor activities) compared with the intact group” value in the series on male Sprague-Dawley rats [4] (vitamin K1 only 200 μg/kg/day subcutaneous) is “no significant differences”. Besides, in series [5] (setting [12]), the F-II activity worked out at 92.7%, the F-IX activity was 100.2%, the F-VII activity turned out to be 70.1% and the F-X activity is listed as 74.3%.
